In patent publication US9963452B2, “Methods, compounds, and compositions for inhibition of ROS” (AUGUSTA PHARMACEUTICALS INC., priority 2013, dated 2018):

Target: ROS (Homo sapiens, UniProt P08922)
Test: In vitro ROS enzymatic reaction assay (HTRF, Cisbio)
Type: biochemical
Design: ROS or EGFR enzyme, 0.008 ng/ul
Settings: for inhibition at 10 µM / Kinase Inhib. 10 uM (%) / Kinase Inhib. 5 uM (%) / inhibition at 5 µM: ROS kinase; for inhibition at 10 µM / Kinase Inhib. 10 uM (%): compound at 10 uM; for inhibition at 10 µM: read-out: Kinase Inhib. 10 uM (%); for Kinase Inhib. 5 uM (%) / inhibition at 5 µM: compound at 5 uM; for inhibition at 5 µM: read-out: Kinase Inhib. 5 uM (%)
Method: The ROS enzymatic reactions were carried out with a high throughput screening platform for phosphor-detection of kinase activity. This platform based on homogeneous time resolved fluorescence (HTRF) technology from Cisbio Bioassays, Inc. (Cisbio). […] The reaction was allowed to proceed for 30 minutes at room temperature. An equal volume of detection buffer was then added to the reaction mix.

Chain of ROS (P08922 28-2347): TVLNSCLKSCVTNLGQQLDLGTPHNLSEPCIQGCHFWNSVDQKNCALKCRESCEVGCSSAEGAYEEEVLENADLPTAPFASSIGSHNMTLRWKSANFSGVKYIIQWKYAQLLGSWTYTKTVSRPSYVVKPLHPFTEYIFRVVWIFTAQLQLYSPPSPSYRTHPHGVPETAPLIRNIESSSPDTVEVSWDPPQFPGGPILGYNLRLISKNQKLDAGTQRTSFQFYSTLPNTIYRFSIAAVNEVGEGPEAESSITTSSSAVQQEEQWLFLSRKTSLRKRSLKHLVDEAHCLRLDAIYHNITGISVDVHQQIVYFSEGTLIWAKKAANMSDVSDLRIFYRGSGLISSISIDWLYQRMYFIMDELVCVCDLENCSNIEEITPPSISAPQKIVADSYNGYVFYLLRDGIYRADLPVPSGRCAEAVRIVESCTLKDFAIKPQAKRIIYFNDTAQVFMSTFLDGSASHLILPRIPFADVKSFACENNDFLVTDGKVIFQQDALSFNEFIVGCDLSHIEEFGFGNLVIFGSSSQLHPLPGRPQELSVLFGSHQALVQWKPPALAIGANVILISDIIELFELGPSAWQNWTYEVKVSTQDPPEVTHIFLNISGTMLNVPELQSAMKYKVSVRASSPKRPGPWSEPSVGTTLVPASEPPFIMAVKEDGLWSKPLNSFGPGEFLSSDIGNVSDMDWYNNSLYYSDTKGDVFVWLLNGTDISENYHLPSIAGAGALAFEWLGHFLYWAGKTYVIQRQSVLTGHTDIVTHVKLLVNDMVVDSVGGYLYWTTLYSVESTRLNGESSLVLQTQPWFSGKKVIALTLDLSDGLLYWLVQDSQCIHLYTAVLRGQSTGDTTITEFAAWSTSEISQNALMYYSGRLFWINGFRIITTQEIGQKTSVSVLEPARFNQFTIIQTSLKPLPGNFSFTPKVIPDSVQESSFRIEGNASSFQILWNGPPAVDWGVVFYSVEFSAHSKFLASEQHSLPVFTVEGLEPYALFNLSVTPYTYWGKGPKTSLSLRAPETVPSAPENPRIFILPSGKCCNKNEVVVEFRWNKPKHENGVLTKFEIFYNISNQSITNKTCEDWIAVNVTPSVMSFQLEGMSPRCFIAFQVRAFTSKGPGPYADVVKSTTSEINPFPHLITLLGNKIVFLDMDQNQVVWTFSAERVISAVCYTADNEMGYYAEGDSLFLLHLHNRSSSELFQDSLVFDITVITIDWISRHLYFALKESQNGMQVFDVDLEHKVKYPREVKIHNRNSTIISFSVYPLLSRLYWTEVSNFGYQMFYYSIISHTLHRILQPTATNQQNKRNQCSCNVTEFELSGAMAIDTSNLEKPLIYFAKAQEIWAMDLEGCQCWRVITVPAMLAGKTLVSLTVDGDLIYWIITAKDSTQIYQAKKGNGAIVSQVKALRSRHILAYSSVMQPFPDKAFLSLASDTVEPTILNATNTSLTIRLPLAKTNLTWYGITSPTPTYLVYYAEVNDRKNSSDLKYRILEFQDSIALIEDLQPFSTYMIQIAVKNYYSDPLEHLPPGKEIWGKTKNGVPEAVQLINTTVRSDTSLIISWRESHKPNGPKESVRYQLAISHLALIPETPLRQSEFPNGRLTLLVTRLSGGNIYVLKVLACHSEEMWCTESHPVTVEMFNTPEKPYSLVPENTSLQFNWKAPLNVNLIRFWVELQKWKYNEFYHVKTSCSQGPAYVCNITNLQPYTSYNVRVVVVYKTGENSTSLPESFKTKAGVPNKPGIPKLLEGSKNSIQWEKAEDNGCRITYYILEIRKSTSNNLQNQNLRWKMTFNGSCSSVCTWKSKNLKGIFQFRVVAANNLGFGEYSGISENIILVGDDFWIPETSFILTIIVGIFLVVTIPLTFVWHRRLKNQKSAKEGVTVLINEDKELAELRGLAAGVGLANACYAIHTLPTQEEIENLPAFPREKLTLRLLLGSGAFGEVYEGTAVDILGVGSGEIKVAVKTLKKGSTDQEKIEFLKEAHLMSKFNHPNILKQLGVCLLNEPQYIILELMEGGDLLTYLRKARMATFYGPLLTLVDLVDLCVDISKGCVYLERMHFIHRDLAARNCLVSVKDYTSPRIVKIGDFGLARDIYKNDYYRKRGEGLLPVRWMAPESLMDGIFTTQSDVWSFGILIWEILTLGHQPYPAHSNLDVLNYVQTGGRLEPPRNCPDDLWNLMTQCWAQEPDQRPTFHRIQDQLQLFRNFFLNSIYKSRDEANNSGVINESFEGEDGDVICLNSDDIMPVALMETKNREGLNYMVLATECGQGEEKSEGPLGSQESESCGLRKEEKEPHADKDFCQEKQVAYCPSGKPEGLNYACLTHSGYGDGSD

| Compound | IC50 | inhibition at 5 µM | also measured |
| --- | --- | --- | --- |
| O=C(NCC1Cc2cc(-c3cncnc3)cc(Cl)c2O1)c1cccc(Cn2cccn2)c1 (centres unmarked) | > 100000 nM | – | Kinase Inhib. 10 uM (%): 30.25% |
| Nc1nc(Nc2ccc(C(=O)N3CCCC4CCCCC43)cc2)cc(Nc2ccc3ncsc3c2)n1 (centres unmarked) | – | – | Kinase Inhib. 5 uM (%): 27.92% |
| COc1ccc(C(NC(=O)c2n[nH]c(-c3ccccc3)c2C)c2ccncc2)cc1 (centres unmarked) | – | – | Kinase Inhib. 5 uM (%): 31.08% |
| O=C(NCC1CCCO1)c1cccc(Nc2nccc(Nc3ccc4ncsc4c3)n2)c1 (centres unmarked) | – | 101% | – |
| COc1ccccc1C1C(C#N)=C(N)Oc2[nH]nc(C)c21 (centres unmarked) | – | – | Kinase Inhib. 5 uM (%): 27.58% |
| O=c1nc2[nH]c3ccc([N+](=O)[O-])cc3nc-2c(=O)[nH]1 | – | – | Kinase Inhib. 5 uM (%): 26.23% |
| Cc1cc(=O)n2nc(CC(=O)c3ccccc3)[nH]c2n1 | – | 33.2% | – |
| O=C(c1ccccc1)c1nc(-c2ccco2)[nH]c1NCc1ccccc1 | – | – | Kinase Inhib. 5 uM (%): 25.92% |
| COc1ccccc1NC(=O)C1=C(C)Nc2ncnn2C1c1ccc[nH]1 (centres unmarked) | – | – | Kinase Inhib. 5 uM (%): 40.40% |
| CC(C)c1nc(Nc2ccc3ncsc3c2)nc(NC2CCCCC2)n1 | 1500 nM | – | – |
| CC(C)c1nc(NCC2CCCCC2)nc(Nc2ccc3ncsc3c2)n1 | 528 nM | – | – |
| CCOc1nc(Nc2cccc(Cc3nc4ccccc4s3)c2)nc(C(C)C)n1 | 9260 nM | – | – |
| CC(C)c1nc(Nc2cccc(Br)c2)nc(Nc2ccc3ncsc3c2)n1 | 86 nM | – | – |
| CC(C)c1nc(Nc2cccc(Br)c2)nc(Nc2cc(C3CC3)n[nH]2)n1 | 38 nM | – | – |
| CC(C)c1nc(Nc2ccc(Br)cc2)nc(Nc2cc(C3CC3)n[nH]2)n1 | 67 nM | – | – |
| O=C(c1ccc(Nc2ncc(Br)c(Nc3ccc4ncsc4c3)n2)cc1)N1CCCCC1 | 620 nM | – | – |
| Cc1ccc(Cn2c(NCc3nc4ccccc4n3C)nc3ccccc32)cc1 [drawing 218] | – | – | inhibition at 10 µM: 20.2% |
| NC(=O)c1c(NC(=O)[C@H]2CC(=O)N(c3ccccc3)C2)sc2c1CCCC2 [drawing 219] | 1300 nM | – | inhibition at 10 µM: 41.5% |
| Clc1ccc2nc(NCc3ccccn3)nc(-c3ccccc3)c2c1 [drawing 220] | – | – | inhibition at 10 µM: 25% |
| NS(=O)(=O)c1ccc(CCNC(=O)c2cc(-c3cccs3)nc3ccccc23)cc1 [drawing 221] | – | – | inhibition at 10 µM: 21.5% |

| Compound | IC50 | inhibition at 5 µM | also measured |
| --- | --- | --- | --- |
| Cc1[nH]c2nc(NCc3cccc([N+](=O)[O-])c3)nn2c(=O)c1Cc1ccccc1 [drawing 222] | – | – | Kinase Inhib. 10 uM (%): 23.83% |
| CCOC(Nc1cc(-c2sccc2-n2c(C)ccc2C)[nH]n1)OCC [drawing 227] | – | – | Kinase Inhib. 10 uM (%): 27.57% |
| O=c1cc(Oc2ccccc2)c(-c2nc[nH]n2)nn1-c1ccccc1 [drawing 228] | – | – | Kinase Inhib. 10 uM (%): 20.40% |
| O=C(NNc1nc2ccccc2nc1Cc1ccccc1)c1cccc(Cl)c1 [drawing 229] | – | – | inhibition at 10 µM: 24.3% |
| O=C1NN=C(c2ccccc2)/C1=C/Nc1ccccc1 [drawing 231] | – | 30.6% | – |
| Cc1cccc(Nc2ccnc(Nc3cccc(C(=O)N4CC=CCC4)c3)n2)c1 [drawing 234] | 80 nM | 94.2% | – |
| CCN(CC)CCNC(=O)c1cccc(Nc2nccc(Nc3ccc4ncsc4c3)n2)c1 [drawing 236] | – | 102% | – |
| Nc1nc(Nc2ccc(C(=O)NCc3ccco3)cc2)cc(Nc2ccc3ncsc3c2)n1 [drawing 238] | 3810 nM | 49% | – |
| O=C(NCc1ccco1)c1cccc(Nc2nccc(Nc3ccc4ncsc4c3)n2)c1 [drawing 239] | 160 nM | 101% | – |
| CC(=O)N[C@@H]1CCN(C(=O)c2cccc(Nc3cc(N(C)c4cccc(C)c4)ncn3)c2)C1 [drawing 241] | – | 29.6% | – |
| Cc1cccc(Nc2nccc(Nc3cccc(C(=O)NCc4ccc(F)cc4)c3)n2)c1 [drawing 242] | – | 23.7% | – |
| Cc1cccc(Nc2nccc(Nc3cccc(C(=O)NCCN4CCOCC4)c3)n2)c1 [drawing 244] | 2100 nM | 98.4% | – |
| Clc1ccc(CNc2cc(-c3ccccc3)ncn2)cc1 [drawing 246] | – | – | inhibition at 10 µM: 21.2% |
| COc1cccc(Nc2nc(N)c(C(=O)c3c(C)[nH]c4ccccc34)s2)c1 [drawing 247] | – | – | inhibition at 10 µM: 28.5% |
| O=C(c1cccc(-c2noc(-c3n[nH]c4c3CCCC4)n2)c1)N1CCCCC1 [drawing 248] | 4100 nM | – | inhibition at 10 µM: 39.5% |
| COc1ccc(Nc2nc(N(C)CCO)nc3c2cnn3-c2ccccc2)cc1 [drawing 250] | – | – | Kinase Inhib. 5 uM (%): 41.55% |
| CC(C)(C)c1cc(C(=O)NNc2cccc(Cl)c2)n(Cc2ccccc2)n1 [drawing 252] | – | – | Kinase Inhib. 10 uM (%): 27.16% |
| O=C(NNc1cc(C(F)(F)F)ccc1Cl)c1cccnc1Oc1ccccc1 [drawing 253] | > 100000 nM | – | inhibition at 10 µM: 31.2% |
| O=C1NCCN1CCN1C(=O)c2ccccc2N[C@H]1c1ccccc1 [drawing 254] | – | – | inhibition at 10 µM: 20.3% |
| O=C1NN=C(c2ccccc2)/C1=C1\OC(c2ccccc2)=CS1 [drawing 255] | 160 nM | 69.2% | inhibition at 10 µM: 77.8% |

| Compound | IC50 | inhibition at 5 µM | also measured |
| --- | --- | --- | --- |
| Cc1ccc(-n2cc(-c3cccs3)nc2SCc2n[nH]c(=S)n2Cc2ccccc2)cc1 [drawing 256] | – | – | Kinase Inhib. 10 uM (%): 28.13% |
| Oc1[nH]nc2nnc(-c3ccccc3)c(-c3ccccc3)c12 [drawing 257] | 20400 nM | – | inhibition at 10 µM: 35.6% |
| Nc1nc(N)n(-c2ccccc2)/c(=N/c2ccccc2)n1 [drawing 258] | > 100000 nM | – | inhibition at 10 µM: 34.5% |
| FC(F)(F)c1cc(-n2c(Cc3cccc4ccccc34)n[nH]c2=S)cc(C(F)(F)F)c1 [drawing 260] | – | – | Kinase Inhib. 5 uM (%): 28.49% |
| Cc1cc(C)c(NC(=O)c2cc3ccccc3c(=O)s2)c(-c2cc(C)[nH]n2)c1 [drawing 263] | – | – | Kinase Inhib. 5 uM (%): 21.55% |
| NC(=O)c1c(NC(=O)Nc2ccccc2)sc2c1CCCC2 [drawing 264] | – | 37.1% | – |
| Cn1c(=O)c2c(nc3n(CCO)c(-c4ccccc4)cn23)n(C)c1=O [drawing 265] | – | – | Kinase Inhib. 5 uM (%): 26.87% |
| CC1=NNC(=O)/C1=C\c1cn(-c2ccccc2)nc1-c1ccccc1 [drawing 266] | 1220 nM | 62% | – |
| Cc1ccc(F)cc1S(=O)(=O)Nc1cccc(C(=O)OCC(=O)NC2CCCCC2)c1 [drawing 267] | – | 20% | – |
| O=C1c2ccccc2C(=O)N1C[C@H](O)Cn1nc(-c2cccs2)c2ccccc2c1=O [drawing 268] | – | – | Kinase Inhib. 5 uM (%): 20.74% |
| O=c1c(O)c(-c2ccc(O)c(O)c2)oc2cc(O)cc(O)c12 [drawing 269] | 50 nM | 99.6% | inhibition at 10 µM: 98.2% |
| O=C(NCC1CCCCC1)c1cccc(Nc2nccc(Nc3ccc4ncsc4c3)n2)c1 [drawing 270] | – | 32.6% | – |
| CC(C)(CO)NC(=O)c1cccc(Nc2nccc(Nc3ccc4ncsc4c3)n2)c1 [drawing 271] | 361 nM | 96.3% | – |
| Nc1nc(Nc2ccc(C(=O)N3CCCCCC3)cc2)cc(Nc2ccc3ncsc3c2)n1 [drawing 272] | – | – | Kinase Inhib. 5 uM (%): 22.67% |
| O=C(NCc1cccs1)c1cccc(Nc2nccc(Nc3ccc4ncsc4c3)n2)c1 [drawing 273] | 435 nM | 101% | – |
| O=C(NCCN1CCOCC1)c1cccc(Nc2nccc(Nc3ccc4ncsc4c3)n2)c1 [drawing 274] | – | 101% | – |
| CN(C)CC(C)(C)CNC(=O)c1cccc(Nc2nccc(Nc3ccc4ncsc4c3)n2)c1 [drawing 276] | 271 nM | 101% | – |
| CN1CCN(C(=O)c2cccc(Nc3nccc(Nc4ccc5ncsc5c4)n3)c2)CC1 [drawing 278] | 140 nM | 99.4% | – |
| Cc1cccc(Nc2nccc(Nc3cccc(C(=O)NCCCN4CCOCC4)c3)n2)c1 [drawing 279] | – | 92.9% | – |

Further lines, with some results ahead:

| IC50 | inhibition at 5 µM | Compound | also measured |
| --- | --- | --- | --- |
| > 100000 nM | – | Cc1c(Br)c([N+](=O)[O-])nn1[C@H](C)C(=O)Nc1c(C)n(C)n(-c2ccccc2)c1=O | inhibition at 10 µM: 34.1% |
| > 100000 nM | – | Cc1cc(C)n(-c2cccc(C(=O)NCC3Cc4cc(Cl)cc(-c5cnccn5)c4O3)c2)n1 (centres unmarked) | Kinase Inhib. 10 uM (%): 29.68% |
| 1700 nM | – | COc1ccccc1[C@@H]1C(C#N)=C(N)Oc2n[nH]c(C(F)(F)F)c21 | inhibition at 10 µM: 61.6% |
| 358 nM | – | CC(C)c1nc(NCc2ccccc2)nc(Nc2ccc3ncsc3c2)n1 | – |
| 746 nM | – | CC(C)c1nc(Nc2ccc(N)cc2)nc(Nc2ccc3ncsc3c2)n1 | – |
| 840 nM | – | CC(C)c1nc(Nc2ccc(Br)cc2)nc(Nc2ccc3ncsc3c2)n1 | – |
| 40 nM | – | CC(C)c1nc(Nc2cccc(OC(F)(F)F)c2)nc(Nc2cc(C3CC3)n[nH]2)n1 | – |
| 4000 nM | – | COc1ccccc1-c1cc(C(F)F)n2ncc(C(=O)NCc3cccnc3)c2n1 [drawing 224] | inhibition at 10 µM: 35% |
| – | 34.2% | COc1ccc(N/C=C2\C(=O)NN=C2c2ccccc2)cc1 [drawing 232] | – |
| – | 43.7% | Cc1ccc(NC=C2C(=O)NN=C2c2ccccc2)cc1 [drawing 233] | – |
| 130 nM | – | O=C(NCCc1ccc(F)cc1)c1cccc(Nc2nccc(Nc3ccc4ncsc4c3)n2)c1 [drawing 235] | Kinase Inhib. 5 uM (%): 100.68% |
| – | 22.3% | COc1cccc(Nc2cc(Nc3cccc(C(=O)N4CCN(C(C)=O)CC4)c3)nc(N)n2)c1 [drawing 240] | – |
| 620 nM | 101% | CCC(C)(C)NC(=O)c1cccc(Nc2nccc(Nc3ccc4ncsc4c3)n2)c1 [drawing 243] | – |
| – | 47.3% | Cc1cccc(Nc2nccc(Nc3cccc(C(=O)Nc4ccc(F)cc4)c3)n2)c1 [drawing 245] | – |
| 16800 nM | – | CCN(CCO)c1nc(Nc2ccc(F)cc2)c2cnn(-c3ccccc3)c2n1 [drawing 249] | Kinase Inhib. 10 uM (%): 38.92% |
| 10000 nM | – | CSc1sc(-c2n[nH]cc2Br)c2c1C(=O)CC(C)(C)C2 [drawing 259] | inhibition at 10 µM: 34% |
| – | 23.6% | Cc1nc2cc(C(=O)N[C@H](c3ccccc3)c3cccnc3)ccc2[nH]1 [drawing 261] | – |
| – | 33.3% | Cc1cccc(Nc2nccc(Nc3cccc(C(=O)NCc4ccccc4F)c3)n2)c1 [drawing 275] | – |
